# Reference: patent US12662481B2, “Substituted 2-morpholinopyridine derivatives as ATR kinase inhibitors” (Repare Therapeutics Inc., priority 2019, dated 2026)
# pIC50: −log10 of the molar value. Read-outs that look alike come from different tables or passages of the source.
# How the values were obtained:
# ATR/ATRIP = ATR/ATRIP (Homo sapiens, UniProt Q13535); assay: ATR/ATRIP enzymatic assay (AlphaScreen, phosphorylation of p53)
# Experimental: Detection of ATR kinase activity utilized the AlphaScreen system to measure the phosphorylation of the substrate protein p53. […] Plates were incubated at room temperature in the dark for 4 hours and read on a BMG Polarstar using AlphaScreen dedicated filters. […] IC50 values were determined using a 4-parameter fit algorithm.
# [1] = test system: ATR (CHK1 phosphorylation at Ser345 in HeLa S3 cells); assay: ATR assay in HeLa S3 cells (CHK1 p-Ser345 AlphaScreen SureFire, gemcitabine); assay type: cell-based; conditions: HeLa S3 whole cell assay, 3.5 to 4 hours
# Experimental: Media was then replaced by 20 μL per well Opti-MEM no phenol red and 5 μL of serial diluted compounds were added to the assay plate for a final DMSO concentration of 0.5%. […] The plate was incubated at 37° C., 5% CO2 for 3.5 to 4 hours.
# [2] = Homo sapiens, gemcitabine 1.5 μM
# ATR/ATRIP, sequence (Q13535 whole entry): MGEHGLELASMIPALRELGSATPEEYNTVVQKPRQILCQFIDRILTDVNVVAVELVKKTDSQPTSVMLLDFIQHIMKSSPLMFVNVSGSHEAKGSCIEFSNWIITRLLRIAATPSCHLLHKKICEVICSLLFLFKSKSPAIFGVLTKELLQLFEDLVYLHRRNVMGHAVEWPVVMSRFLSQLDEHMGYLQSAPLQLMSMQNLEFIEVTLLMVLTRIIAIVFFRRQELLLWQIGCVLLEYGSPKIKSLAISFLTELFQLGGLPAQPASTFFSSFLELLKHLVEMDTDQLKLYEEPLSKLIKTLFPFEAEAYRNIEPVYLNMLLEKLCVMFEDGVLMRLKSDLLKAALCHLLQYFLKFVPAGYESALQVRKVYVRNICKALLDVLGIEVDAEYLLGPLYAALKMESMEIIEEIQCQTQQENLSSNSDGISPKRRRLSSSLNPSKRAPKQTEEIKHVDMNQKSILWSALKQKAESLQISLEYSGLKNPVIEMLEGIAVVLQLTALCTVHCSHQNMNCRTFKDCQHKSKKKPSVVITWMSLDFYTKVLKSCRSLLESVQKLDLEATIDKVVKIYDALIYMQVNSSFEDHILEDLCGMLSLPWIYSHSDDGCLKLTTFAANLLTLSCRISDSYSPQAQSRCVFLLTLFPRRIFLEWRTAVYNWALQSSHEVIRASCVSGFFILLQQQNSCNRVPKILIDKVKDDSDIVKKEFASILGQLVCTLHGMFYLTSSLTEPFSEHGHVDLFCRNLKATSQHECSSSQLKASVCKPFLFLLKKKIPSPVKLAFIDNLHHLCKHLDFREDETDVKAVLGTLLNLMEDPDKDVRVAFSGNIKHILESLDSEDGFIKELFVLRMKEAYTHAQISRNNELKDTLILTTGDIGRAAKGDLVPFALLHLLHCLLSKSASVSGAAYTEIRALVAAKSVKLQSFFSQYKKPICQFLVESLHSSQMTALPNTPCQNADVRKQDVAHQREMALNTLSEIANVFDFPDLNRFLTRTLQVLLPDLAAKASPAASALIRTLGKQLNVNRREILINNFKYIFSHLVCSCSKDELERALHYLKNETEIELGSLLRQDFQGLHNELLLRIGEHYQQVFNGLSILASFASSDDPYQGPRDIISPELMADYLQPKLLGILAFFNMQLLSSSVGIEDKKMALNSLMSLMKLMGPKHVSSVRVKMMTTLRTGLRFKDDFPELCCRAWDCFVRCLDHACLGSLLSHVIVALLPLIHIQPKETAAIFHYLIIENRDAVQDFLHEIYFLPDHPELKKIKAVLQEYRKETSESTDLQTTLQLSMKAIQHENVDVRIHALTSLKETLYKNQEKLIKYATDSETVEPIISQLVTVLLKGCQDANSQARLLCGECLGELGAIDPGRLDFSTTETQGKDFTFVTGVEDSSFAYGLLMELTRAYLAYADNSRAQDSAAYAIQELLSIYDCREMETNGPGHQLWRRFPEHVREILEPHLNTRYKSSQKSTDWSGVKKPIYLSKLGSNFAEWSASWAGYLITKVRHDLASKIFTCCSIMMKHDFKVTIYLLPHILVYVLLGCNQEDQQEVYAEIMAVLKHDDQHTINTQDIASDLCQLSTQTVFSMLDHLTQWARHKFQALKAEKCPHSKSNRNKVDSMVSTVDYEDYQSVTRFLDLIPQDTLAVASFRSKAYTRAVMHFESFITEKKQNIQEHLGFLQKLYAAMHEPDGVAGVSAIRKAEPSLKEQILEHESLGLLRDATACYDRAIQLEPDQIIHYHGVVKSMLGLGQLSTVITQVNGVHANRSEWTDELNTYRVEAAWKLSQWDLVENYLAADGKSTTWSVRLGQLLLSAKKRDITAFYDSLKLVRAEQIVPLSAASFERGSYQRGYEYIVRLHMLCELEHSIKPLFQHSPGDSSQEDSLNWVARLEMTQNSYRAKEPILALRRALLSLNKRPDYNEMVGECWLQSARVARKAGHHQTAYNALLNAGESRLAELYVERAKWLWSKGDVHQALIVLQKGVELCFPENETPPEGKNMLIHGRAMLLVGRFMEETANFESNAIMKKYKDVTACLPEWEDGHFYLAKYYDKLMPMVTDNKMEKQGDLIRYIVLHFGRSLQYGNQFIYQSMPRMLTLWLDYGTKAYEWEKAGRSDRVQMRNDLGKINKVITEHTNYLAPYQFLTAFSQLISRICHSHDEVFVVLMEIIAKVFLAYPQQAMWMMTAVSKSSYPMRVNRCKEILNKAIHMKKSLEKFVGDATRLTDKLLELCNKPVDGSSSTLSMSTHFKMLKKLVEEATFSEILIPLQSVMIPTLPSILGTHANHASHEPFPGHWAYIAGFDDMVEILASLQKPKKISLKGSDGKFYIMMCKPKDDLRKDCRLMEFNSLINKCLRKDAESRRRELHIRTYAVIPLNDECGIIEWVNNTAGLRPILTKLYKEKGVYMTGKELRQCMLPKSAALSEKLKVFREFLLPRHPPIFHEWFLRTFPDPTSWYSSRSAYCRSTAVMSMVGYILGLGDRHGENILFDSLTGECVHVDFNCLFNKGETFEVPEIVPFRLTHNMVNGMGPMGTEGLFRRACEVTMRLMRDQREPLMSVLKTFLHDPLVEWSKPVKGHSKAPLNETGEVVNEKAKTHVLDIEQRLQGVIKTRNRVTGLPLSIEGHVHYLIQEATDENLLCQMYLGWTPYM
# ATR/ATRIP, sequence (Q8WXE1 whole entry partner): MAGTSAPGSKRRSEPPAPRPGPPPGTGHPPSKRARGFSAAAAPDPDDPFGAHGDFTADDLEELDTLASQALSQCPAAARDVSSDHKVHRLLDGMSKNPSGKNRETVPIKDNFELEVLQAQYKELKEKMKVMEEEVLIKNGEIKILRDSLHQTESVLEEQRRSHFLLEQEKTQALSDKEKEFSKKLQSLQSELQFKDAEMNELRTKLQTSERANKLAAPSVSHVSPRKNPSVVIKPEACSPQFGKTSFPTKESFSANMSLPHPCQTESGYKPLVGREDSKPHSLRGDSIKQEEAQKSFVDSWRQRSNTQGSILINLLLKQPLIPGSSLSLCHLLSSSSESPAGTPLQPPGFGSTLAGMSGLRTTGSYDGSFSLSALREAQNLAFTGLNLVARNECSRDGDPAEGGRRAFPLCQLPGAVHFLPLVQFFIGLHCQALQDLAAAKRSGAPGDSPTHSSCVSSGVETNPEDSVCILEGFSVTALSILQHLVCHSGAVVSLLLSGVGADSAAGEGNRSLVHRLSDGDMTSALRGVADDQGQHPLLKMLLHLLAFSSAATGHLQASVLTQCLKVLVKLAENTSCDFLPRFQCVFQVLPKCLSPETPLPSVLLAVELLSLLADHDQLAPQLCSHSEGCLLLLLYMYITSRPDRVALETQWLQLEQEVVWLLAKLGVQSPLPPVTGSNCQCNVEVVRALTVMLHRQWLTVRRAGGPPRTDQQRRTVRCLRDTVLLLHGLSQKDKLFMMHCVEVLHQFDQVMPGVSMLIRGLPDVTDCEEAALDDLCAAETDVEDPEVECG
Structure (SMILES),"pIC50 [1, 2]",further results
Cc1ccncc1-c1cc(N2CCOC[C@H]2C)nc2c1ccn2-c1cc[nH]n1 [Compound 9],–,pIC50 (ATR/ATRIP): 6.43
C[C@@H]1COCCN1c1cc(-c2nncs2)c2cnn(-c3cc[nH]n3)c2n1 [Compound 33],–,pIC50 (ATR/ATRIP): 6.81
CC(C#N)c1cc(N2CCOC[C@H]2C)nc2c1cnn2-c1cc[nH]n1 (some centres unmarked) [Compound 47],–,"pIC50 (ATR/ATRIP; read-out: ATR IC50, recombinant ATR/ATRIP 0.63 nM, 25 nM GST-p53, 3 μM ATP, 1 hour room temperature): 7.92"
C[C@@H]1COCCN1c1cc([C@]2(O)C[C@H]3CC[C@@H](C2)O3)c2cnn(-c3cc[nH]n3)c2n1 [Compound 121],9.05,–
"C[C@@H]1COCCN1c1cc(-c2ccccc2S(N)(=O)=O)c2cnn(-c3cc[nH]n3)c2n1 [Compound 126, (R)-2-(6-(3-methylmorpholino)-1-(1H-pyrazol-3-yl)-1H-pyrazolo[3,4-b]pyridin-4-yl)benzenesulfonamide]",7.77,–
C[C@@H]1COCCN1c1cc(N2CCOCC2=O)c2cnn(-c3cc[nH]n3)c2n1 [Compound 134],7.39,–
COC1(c2cc(N3CCOC[C@H]3C)nc3c2cnn3-c2cc[nH]n2)CCSCC1 [Compound 147],9.10,–
C[C@@H]1COCCN1c1cc(-c2cccnc2C(F)(F)F)c2c(=O)[nH]n(-c3ccn[nH]3)c2n1 [Compound 151],–,pIC50 ([1]; gemcitabine […]): 8.04
